# From patent US20240293351A1, “METHODS OF ADMINISTERING SYNTHETIC TRITERPENOIDS” (REATA PHARMACEUTICALS HOLDINGS, LLC, priority 2020, published 2024)
# What was measured:
# [1] = human, in vivo, po
# [2] = Drug-drug interaction study: bardoxolone methyl alone and with itraconazole in healthy volunteers; details: for AUC extra %, GM / AUC extra %, Mean / CL/F, GM / CL/F, Mean / λz, GM / λz, Mean / AUC(0-t) / AUC(0-inf) / Cmax / half-life / Vd/F / Tmax: plasma; for AUC(0-t) / AUC(0-inf) / Cmax / half-life / Vd/F / Tmax: human; for AUC(0-t): AUC0-t; for AUC(0-inf): AUC0-∞; for Vd/F: Vz/F
# [3] = BEACON post-hoc review of EAC case packets for heart failure events within first four weeks; format: in vivo, human
# Method: The first scheduled post-baseline assessment in BEACON was at Week 4. Since many of the heart failure events occurred prior to Week 4, the clinical database provides limited information to characterize these patients. Post-hoc review of the EAC case packets for heart failure cases that occurred prior to Week 4 was performed to assess clinical, vitals, laboratory, and imaging data collected at the time of the first heart failure event (Tables 13 and 14).
# Baseline central laboratory values from the clinical database were compared to local laboratory values obtained on admission for heart failure that were included in the EAC packets.
# [4] = Period 1: single oral 10 mg bardoxolone methyl alone, fasted, n = 16
# [5] = Period 2: single 10 mg bardoxolone methyl with daily 200 mg itraconazole, n = 15
# [6] = bardoxolone methyl alone (Period 1)
# [7] = oral, 10 mg, Geom. Mean, Bardoxolone Methyl Alone (A), paired analysis n = 15
# [8] = oral, GM, Period 2: single 10 mg bardoxolone methyl with daily 200 mg itraconazole, n = 15
# [9] = oral, Geom. Mean, Bardoxolone Methyl + Itraconazole (B), paired analysis n = 15
# [10] = oral, Mean, Period 2: single 10 mg bardoxolone methyl with daily 200 mg itraconazole, n = 15
# [11] = po, 10 mg, GM, Period 1: single oral 10 mg bardoxolone methyl alone, fasted, n = 16
# [12] = po, 10 mg, Mean, Period 1: single oral 10 mg bardoxolone methyl alone, fasted, n = 16
smiles,measurement,setting,value
"COC(=O)[C@]12CCC(C)(C)C[C@H]1[C@H]1C(=O)C=C3[C@@]4(C)C=C(C#N)C(=O)C(C)(C)[C@@H]4CC[C@@]3(C)[C@]1(C)CC2 [Bardoxolone methyl, methyl-2-cyano-3,12-dioxooleana-1,9-dien-28-oic acid]",Dose dependence of systemic exposure,[1],increased linearly with increasing dose from 20 to 60 mg
same,Food effect on total systemic exposure,[1],no appreciable food effect
same,Increase in peak plasma levels (Cmax) with food,[1],approximately 71%
same,Time of peak plasma concentrations after dose administration,[1],1 to 6 h
same,Tolerability of concomitant administration with itraconazole,[2]; 10 mg + itraconazole 200 mg,generally safe and well tolerated
same,Clearance (GM CL/F),[2]; 10 mg single dose + itraconazole 200 mg daily,41.6 L/h
same,Clearance (GM CL/F),"[2]; 10 mg single dose, alone",359 L/h
same,Increase in exposure in the presence of itraconazole,"[2]; 10 mg single dose, itraconazole 200 mg daily",> 5 fold
same,"AUC extra %, GM",[2]; [4],5.81%
same,"AUC extra %, Mean",[2]; [4],6.10%
same,"CL/F, GM",[2]; [4],359 L/h
same,"CL/F, Mean",[2]; [4],402 L/h
same,"λz, GM",[2]; [4],0.0370 h⁻¹
same,"λz, Mean",[2]; [4],0.0392 h⁻¹
same,"AUC extra %, GM",[2]; [5],7.64%
same,"AUC extra %, Mean",[2]; [5],8.47%
same,"CL/F, GM",[2]; [5],41.6 L/h
same,"CL/F, Mean",[2]; [5],42.8 L/h
same,"λz, GM",[2]; [5],0.0074 h⁻¹
same,"λz, Mean",[2]; [5],0.00762 h⁻¹
same,"Subjects with a TEAE, n (%)",[2]; [6],3 (18.8%)
same,"Subjects with study drug-related TEAEs (diarrhea, nausea, headache), n (%)",[2]; [6],1 (6.3%)
same,"Subjects with a TEAE, n (%)",[2]; concomitant bardoxolone methyl and itraconazole (Period 2),1 (6.7%)
same,AUC(0-t),[2]; [7],25.8 ng·h/mL
same,AUC(0-inf),[2]; [7],27.6 ng·h/mL
same,Cmax,[2]; [7],2.41 ng/mL
same,half-life,"[2]; oral, 10 mg, Mean t1/2, 10 mg single dose, alone",19.8 h
same,AUC(0-t),[2]; [8],220 ng·h/mL
same,AUC(0-t),[2]; [9],220 ng·h/mL
same,AUC(0-t),[2]; [10],226 ng·h/mL
same,AUC(0-inf),[2]; [8],241 ng·h/mL
same,AUC(0-inf),[2]; [9],241 ng·h/mL
same,AUC(0-inf),[2]; [10],248 ng·h/mL
same,Cmax,[2]; [8],16.6 ng/mL
same,Cmax,[2]; [9],16.6 ng/mL
same,Cmax,[2]; [10],17.3 ng/mL
same,half-life,"[2]; oral, Mean t1/2, 10 mg single dose + itraconazole 200 mg daily",95.9 h
same,Vd/F,[2]; [8],5620 L
same,Vd/F,[2]; [10],5900 L
same,Tmax,[2]; [10],3.1 h
same,Tmax,"[2]; oral, Median, Period 2: single 10 mg bardoxolone methyl with daily 200 mg itraconazole, n = 15",3 h
same,half-life,"[2]; oral, t½, Mean, Period 2: single 10 mg bardoxolone methyl with daily 200 mg itraconazole, n = 15",95.9 h
same,half-life,"[2]; oral, t½, Median, Period 2: single 10 mg bardoxolone methyl with daily 200 mg itraconazole, n = 15",97.7 h
same,AUC(0-t),[2]; [11],26.1 ng·h/mL
same,AUC(0-t),[2]; [12],29.3 ng·h/mL
same,AUC(0-inf),[2]; [11],27.8 ng·h/mL
same,AUC(0-inf),[2]; [12],31 ng·h/mL
same,Cmax,[2]; [11],2.43 ng/mL
same,Cmax,[2]; [12],2.58 ng/mL
same,Vd/F,[2]; [11],9700 L
same,Vd/F,[2]; [12],10200 L
same,Tmax,[2]; [12],2.9 h
same,Tmax,"[2]; po, 10 mg, Median, Period 1: single oral 10 mg bardoxolone methyl alone, fasted, n = 16",2.5 h
same,half-life,"[2]; po, 10 mg, t½, Mean, Period 1: single oral 10 mg bardoxolone methyl alone, fasted, n = 16",19.8 h
same,half-life,"[2]; po, 10 mg, t½, Median, Period 1: single oral 10 mg bardoxolone methyl alone, fasted, n = 16",20.3 h
same,Changes in laboratory parameters,[2]; whole study,no clinically relevant mean or individual changes in laboratory parameters
same,"Deaths, SAEs, adverse events leading to discontinuation",[2]; whole study,"No subjects died, had an SAE, or had an adverse event that led to discontinuation of study drug"
same,"LVEF at HF hospitalization, mean",[3]; n = 23,52% ±
same,"Serum Sodium at HF hospitalization, mean",[3]; n = 30,139.0 mmol/L
same,"Serum Sodium Δ (HF vs baseline), mean",[3]; n = 30,-1.0 mmol/L
same,"Heart Rate at HF hospitalization, mean",[3]; n = 32,81 bpm
same,"Heart Rate Δ (HF vs baseline), mean",[3]; n = 32,14.5 bpm
same,"SBP at HF hospitalization, mean",[3]; n = 33,154 mmHg
same,"SBP Δ (HF vs baseline), mean",[3]; n = 33,10.5 mmHg
same,"DBP at HF hospitalization, mean",[3]; n = 34,75 mmHg
same,"DBP Δ (HF vs baseline), mean",[3]; n = 34,7.9 mmHg
same,"Serum Potassium at HF hospitalization, mean",[3]; n = 34,4.8 mmol/L
same,"Serum Potassium Δ (HF vs baseline), mean",[3]; n = 34,0.1 mmol/L
same,"Serum Creatinine at HF hospitalization, mean",[3]; n = 38,2.7 mg/dL
